Measured values taken from patent US10590106B2, “Certain chemical entities, compositions, and methods” (NeuPharma, Inc., priority 2012, dated 2020).

Key:
KDR (VEGFR2) = KDR (VEGFR2) (Homo sapiens (Human), UniProt P35968); test: Inhibitory activity against kinase KDR, Z'-LYTE method (Invitrogen); assay type: biochemical; details: for inhibition at 1 µM: 1 μM compound, read-out: Inhibition (% inhibition at 1 μM) against KDR
Procedure: Inhibitory activities of compounds against KDR (VEGFR2) were also measured by Invitrogen using Z′-LYTE® Method as described above with the following modification. The 2× KDR (VEGFR2)/Tyr 01 mixture is prepared in 50 mM HEPES pH 7.5, 0.01% BRIJ-35, 10 mM MgCl2, 1 mM EGTA. The final 10 μL Kinase Reaction consists of 0.5-11.7 ng KDR (VEGFR2) and 2 μM Tyr 01 in 50 mM HEPES pH 7.5, 0.01% BRIJ-35, 10 mM MgCl2, 1 mM EGTA. After the 1 hour Kinase Reaction incubation, 5 μL of a 1:256 dilution of Development Reagent B is added.
The scale utilized in Table 5 is as follows: +++ less than 100 nM; and ++ greater than 100 nM

BRAF V600E = BRAF V600E (Homo sapiens (Human), UniProt P15056, V600E); test: Inhibitory activity against kinase BRAF V600E, Z'-LYTE method (Invitrogen); assay type: biochemical; details: for inhibition at 1 µM: 1 μM compound, read-out: Inhibition (% inhibition at 1 μM) against BRAF V600E
Chain of BRAF V600E (P15056 whole entry V600E): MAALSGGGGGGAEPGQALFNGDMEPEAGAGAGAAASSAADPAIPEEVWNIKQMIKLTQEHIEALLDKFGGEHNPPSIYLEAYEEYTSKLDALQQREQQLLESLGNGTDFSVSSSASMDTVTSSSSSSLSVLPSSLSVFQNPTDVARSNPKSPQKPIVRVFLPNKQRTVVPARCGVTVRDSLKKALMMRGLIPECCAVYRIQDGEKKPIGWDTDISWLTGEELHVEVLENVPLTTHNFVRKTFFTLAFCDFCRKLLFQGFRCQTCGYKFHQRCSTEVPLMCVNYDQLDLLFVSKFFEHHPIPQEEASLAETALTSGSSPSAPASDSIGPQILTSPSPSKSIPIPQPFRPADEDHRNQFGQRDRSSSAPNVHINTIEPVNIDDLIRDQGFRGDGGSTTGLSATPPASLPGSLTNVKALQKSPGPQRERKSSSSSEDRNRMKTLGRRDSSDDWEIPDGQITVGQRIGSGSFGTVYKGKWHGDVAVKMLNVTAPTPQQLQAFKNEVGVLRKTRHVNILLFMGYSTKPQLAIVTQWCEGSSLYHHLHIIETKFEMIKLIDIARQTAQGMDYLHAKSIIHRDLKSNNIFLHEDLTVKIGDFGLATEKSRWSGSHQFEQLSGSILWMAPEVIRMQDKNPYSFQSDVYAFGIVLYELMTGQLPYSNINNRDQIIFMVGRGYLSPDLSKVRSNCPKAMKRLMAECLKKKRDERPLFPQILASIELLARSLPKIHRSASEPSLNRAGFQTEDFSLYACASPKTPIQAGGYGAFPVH
Procedure: Inhibitory activities Inhibitory activities of compounds against BRAF, and BRAF V600E were measured by Invitrogen using Z′-LYTE® Method as briefly described in the following. 4× Test compounds are dissolved in 1% DMSO. […] ATP solutions are diluted to a 4×ATP working concentration in Kinase Buffer (50 mM HEPES pH 7.5, 0.01% BRIJ-35, 10 mM MgCl2, 1 mM EGTA). Reaction started by 30-second shaking of mixture consisting of 2.5 μL 4× test compound, […] and 2.5 μL 4×ATP Solution on Bar-coded Corning, low volume NBS, black 384-well plate (Corning Cat. #3676). Then the mixture was incubated for 60-minute at room temperature for the kinase reaction, followed by addition of 5 μL of a 1:1024 dilution of development reagent A and 30-second plate shake. The mixture was then incubated for another 60-minute at room temperature for development reaction. Fluorescence was read by plate reader. IC50 was calculated by plotting the concentration of compound vs the percentage of inhibition in treated wells using GraphPad Prism 5.
Table 2 and 3 show % inhibition at 1 μM of several compounds of the invention against BRAF and BRAF V600E, respectively, using Z′-LYTE® method.
The scale utilized in Table 4 is as follows: +++ less than 100 nM; and ++ greater than 100 nM.

A375 cells = test: Inhibition of cancer cell growth, MTT or MTS assay, A375; assay type: cell-based; details: Homo sapiens, A-375; 72 h incubation
Procedure: (§1) Inhibition of cell growth by compounds was measured using MTT or MTS assay. Tumor cell lines were purchased from ATCC (American Type Culture Collection, Manassas, Va.). All cell lines were maintained in RPMI 1640 (Hyclone) supplemented with 10% fetal bovine serum (FBS, Hyclone), glutamine (2 mM, Hyclone), and antibiotics (penicillin 100 U/mL and streptomycin 50 μg/mL) at 37° C. in a humidified atmosphere of 5% CO2 in air. Taxol (as a positive control, Sigma) and compounds were dissolved in DMSO (Sigma), and the final concentration of DMSO in the medium was 1%. Tumor cells were plated in 96-well plates at densities of about 2000 (A375) or 4000 (A549 and Colo205) cells/well of a 96-well plate and allowed to adhere/grow for 24 h. They were then treated with various concentrations of drug and incubated for 72 h. For MTT method, medium was then removed by inverting and tapping the plates. 100 μL of MTT (0.5 mg/ml) was added to each well followed by an incubated at 37° C. for 4 h. MTT was then removed and 200 μL of DMSO was added to each well, and the ODs at 570 nm were measured after a 5 second shaking cycle in a 96-well spectrophotometer. For MTS method, 20 μL MTS (CellTiter 96 Aqueous One Solution, Promega) was added to each well followed by an incubated at 37° C. for 2-4 h, solutions were then directly put in a 96-well spectrophotometer, and the ODs at 490 nm were measured.
(§2) All concentrations of compounds were tested in triplicate and controls were averaged over 4 wells. IC50 was calculated by plotting the concentration of compound vs the percentage of inhibition in treated wells using GraphPad Prism 5. […] The scale utilized in Tables […] is as follows: +++ less than 1000 nM; ++ between 1000 nM and 5000 nM; and + greater than 5000 nM. The scale utilized in Table 8 is as follows: +++ less than 2000 nM; ++ between 2000 nM and 5000 nM; and + greater than 5000 nM.

A549 cells = test: Inhibition of cancer cell growth, MTT or MTS assay, A549; assay type: cell-based; details: Homo sapiens, 72 h incubation
Procedure: as §1, §2

Chain of KDR (VEGFR2) (P35968 20-1356): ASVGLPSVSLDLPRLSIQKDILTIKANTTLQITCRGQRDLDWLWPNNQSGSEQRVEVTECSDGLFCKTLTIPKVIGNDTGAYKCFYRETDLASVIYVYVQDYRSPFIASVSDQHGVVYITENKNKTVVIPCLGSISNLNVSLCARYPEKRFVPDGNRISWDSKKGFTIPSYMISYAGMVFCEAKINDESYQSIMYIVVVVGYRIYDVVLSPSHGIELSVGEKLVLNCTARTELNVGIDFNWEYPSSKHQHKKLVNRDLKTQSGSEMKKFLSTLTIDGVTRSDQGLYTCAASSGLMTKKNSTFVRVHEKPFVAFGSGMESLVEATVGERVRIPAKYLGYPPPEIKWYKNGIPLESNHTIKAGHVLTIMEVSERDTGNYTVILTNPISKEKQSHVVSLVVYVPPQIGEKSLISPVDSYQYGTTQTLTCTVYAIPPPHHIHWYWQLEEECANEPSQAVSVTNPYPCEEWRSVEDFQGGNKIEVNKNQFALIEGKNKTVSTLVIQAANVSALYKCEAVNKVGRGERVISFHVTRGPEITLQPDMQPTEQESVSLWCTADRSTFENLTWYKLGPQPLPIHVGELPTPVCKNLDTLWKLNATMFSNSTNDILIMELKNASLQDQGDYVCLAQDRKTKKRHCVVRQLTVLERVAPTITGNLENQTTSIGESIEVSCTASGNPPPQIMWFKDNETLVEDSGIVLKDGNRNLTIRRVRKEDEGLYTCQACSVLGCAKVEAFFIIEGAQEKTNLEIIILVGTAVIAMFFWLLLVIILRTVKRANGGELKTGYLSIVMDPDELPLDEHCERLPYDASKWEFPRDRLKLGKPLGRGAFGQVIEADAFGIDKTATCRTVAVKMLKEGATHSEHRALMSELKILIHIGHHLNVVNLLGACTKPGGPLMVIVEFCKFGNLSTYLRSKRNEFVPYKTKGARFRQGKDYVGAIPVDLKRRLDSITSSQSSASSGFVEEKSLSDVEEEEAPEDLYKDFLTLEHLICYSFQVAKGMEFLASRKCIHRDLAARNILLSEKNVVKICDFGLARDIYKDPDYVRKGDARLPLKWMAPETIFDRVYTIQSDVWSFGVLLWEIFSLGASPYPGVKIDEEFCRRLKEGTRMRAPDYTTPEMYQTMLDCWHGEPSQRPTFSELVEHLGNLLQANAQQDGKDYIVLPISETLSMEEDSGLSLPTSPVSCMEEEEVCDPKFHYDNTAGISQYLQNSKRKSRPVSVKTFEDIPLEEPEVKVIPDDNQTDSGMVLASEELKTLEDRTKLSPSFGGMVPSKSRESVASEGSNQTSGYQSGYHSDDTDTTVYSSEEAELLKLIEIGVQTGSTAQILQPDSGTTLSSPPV

| inhibition at 1 µM (KDR (VEGFR2)) | inhibition at 1 µM (BRAF V600E) | IC50 (A375 cells) | IC50 (A549 cells) | IC50 (KDR (VEGFR2)) | IC50 (BRAF V600E) | SMILES |
| --- | --- | --- | --- | --- | --- | --- |
| < 70% | < 70% | > 5 µM |  |  |  | CCCNC(=O)Nc1cccc(Oc2ccc3nccnc3c2)c1 [Compound C071, 1-propyl-3-(3-(quinoxalin-6-yloxy)phenyl)urea] |
|  |  | > 5 µM | > 5 µM |  |  | CCCS(=O)(=O)Nc1cccc(Oc2ccc3nccnc3c2)c1 [Compound C007, N-(3-(quinoxalin-6-yloxy)phenyl)propane-1-sulfonamide] |
|  | 70 to 89% |  |  |  |  | O=C(Nc1ccc(Cl)cc1)Nc1ccc(Oc2ccc3ncc(N4CCOCC4)nc3c2)cc1 [Compound C085, 1-(4-chlorophenyl)-3-(4-((3-morpholinoquinoxalin-6-yl)oxy)phenyl)urea] |
|  | < 70% | 1 to 5 µM |  |  |  | CCCS(=O)(=O)Nc1cc(F)cc(Oc2ccc3nccnc3c2)c1 [Compound C019, N-(3-fluoro-5-(quinoxalin-6-yloxy)phenyl)propane-1-sulfonamide] |
| 70 to 89% | > 89% |  | > 5 µM |  |  | O=C(Nc1ccc(F)c(Cl)c1)Nc1ccc(F)c(Oc2ccc3ncc(N4CCOCC4)nc3c2)c1 [Compound C056, 1-(3-chloro-4-fluorophenyl)-3-(4-fluoro-3-((3-morpholinoquinoxalin-6-yl)oxy)phenyl)urea] |
| 70 to 89% | > 89% |  | 2 to 5 µM |  |  | O=C(Nc1ccc(Cl)c(F)c1)Nc1ccc(F)c(Oc2ccc3ncc(N4CCOCC4)nc3c2)c1 [Compound C058, 1-(4-chloro-3-fluorophenyl)-3-(4-fluoro-3-((3-morpholinoquinoxalin-6-yl)oxy)phenyl)urea] |
|  |  |  |  | < 0.1 µM | < 0.1 µM | COc1ccc(NC(=O)Nc2cccc(Oc3ccc4nccnc4c3)c2)cc1 [Compound C069, 1-(4-methoxyphenyl)-3-(3-(quinoxalin-6-yloxy)phenyl)urea] |
| 70 to 89% | > 89% |  | > 5 µM |  |  | O=C(Nc1cccc(F)c1)Nc1cccc(Oc2ccc3ncc(N4CCNCC4)nc3c2)c1 [Compound C037, 1-(3-fluorophenyl)-3-(3-((3-(piperazin-1-yl)quinoxalin-6-yl)oxy)phenyl)urea] |
| < 70% | 70 to 89% |  | > 5 µM |  |  | O=C(Nc1cc(F)cc(F)c1)Nc1cccc(Oc2ccc3ncc(N4CCOCC4)nc3c2)c1 [Compound C045, 1-(3,5-difluorophenyl)-3-(3-((3-morpholinoquinoxalin-6-yl)oxy)phenyl)urea] |
|  |  | > 5 µM |  |  |  | CCCS(=O)(=O)Nc1cc(F)cc(Oc2ccc3ncc(N4CCOCC4)nc3c2)c1 [Compound C030, N-(3-fluoro-5-((3-morpholinoquinoxalin-6-yl)oxy)phenyl)propane-1-sulfonamide] |
|  |  | 1 to 5 µM | 2 to 5 µM |  |  | O=C(Nc1ccc(F)c(Oc2ccc3ncc(N4CCOCC4)nc3c2)c1)c1ccc(Cl)c(C(F)(F)F)c1 [Compound C008, 4-chloro-N-(4-fluoro-3-((3-morpholinoquinoxalin-6-yl)oxy)phenyl)-3-(trifluoromethyl)benzamide] |
| 70 to 89% | 70 to 89% | > 5 µM |  |  |  | O=C(Nc1ccc(Oc2ccc3ncc(N4CCOCC4)nc3c2)cc1)Nc1ccc(C(F)(F)F)cc1 [Compound C083, 1-(4-((3-morpholinoquinoxalin-6-yl)oxy)phenyl)-3-(4-(trifluoromethyl)phenyl)urea] |
| < 70% | 70 to 89% | > 5 µM |  |  |  | O=C(Nc1cccc(Oc2ccc3nccnc3c2)c1)c1cccc(F)c1 [Compound C004, 3-fluoro-N-(3-(quinoxalin-6-yloxy)phenyl)benzamide] |
|  |  | > 5 µM |  |  |  | O=C(Nc1cccc(Oc2ccc3nccnc3c2)c1)NC1CC1 [Compound C072, 1-cyclopropyl-3-(3-(quinoxalin-6-yloxy)phenyl)urea] |
| 70 to 89% | > 89% |  | > 5 µM |  |  | O=C(Nc1cccc(F)c1)Nc1cccc(Oc2ccc3ncc(N4CCOCC4)nc3c2)c1 [Compound C042, 1-(3-fluorophenyl)-3-(3-((3-morpholinoquinoxalin-6-yl)oxy)phenyl)urea] |
|  | < 70% | > 5 µM |  |  |  | O=C(Nc1ccc(Oc2ccc3nccnc3c2)cc1F)c1ccnc(C(F)(F)F)c1 [Compound C100, N-(2-fluoro-4-(quinoxalin-6-yloxy)phenyl)-2-(trifluoromethyl)isonicotinamide] |
|  |  | > 5 µM | > 5 µM |  |  | CCCS(=O)(=O)Nc1ccc(Oc2ccc3nccnc3c2)cc1 [Compound C080, N-(4-(quinoxalin-6-yloxy)phenyl)propane-1-sulfonamide] |
| 70 to 89% | > 89% | 1 to 5 µM |  |  |  | O=C(Nc1ccc(F)cc1)Nc1ccc(F)c(Oc2ccc3ncc(N4CCOCC4)nc3c2)c1 [Compound C053, 1-(4-fluoro-3-((3-morpholinoquinoxalin-6-yl)oxy)phenyl)-3-(4-fluorophenyl)urea] |
|  |  |  | > 5 µM |  |  | O=C(Nc1ccc(Oc2ccc3ncc(O)nc3c2)cc1)Nc1ccc(Cl)c(C(F)(F)F)c1 [Compound C103, 1-(4-chloro-3-(trifluoromethyl)phenyl)-3-(4-((3-hydroxyquinoxalin-6-yl)oxy)phenyl)urea] |
|  | < 70% | > 5 µM |  |  |  | O=C(Nc1ccc(Oc2ccc3nccnc3c2)cc1F)c1cncc(C(F)(F)F)c1 [Compound C099, N-(2-fluoro-4-(quinoxalin-6-yloxy)phenyl)-5-(trifluoromethyl)nicotinamide] |
|  | 70 to 89% | < 1 µM |  |  |  | O=C(Nc1cccc(Cl)c1)Nc1ccc(Oc2ccc3nccnc3c2)c(F)c1 [Compound C101, 1-(3-chlorophenyl)-3-(3-fluoro-4-(quinoxalin-6-yloxy)phenyl)urea] |
|  | 70 to 89% |  |  |  |  | O=C(Nc1ccc(Cl)cc1)Nc1ccc(Oc2ccc3nccnc3c2)c(F)c1 [Compound C102, 1-(4-chlorophenyl)-3-(3-fluoro-4-(quinoxalin-6-yloxy)phenyl)urea] |
| 70 to 89% | > 89% |  |  |  |  | O=C(Nc1ccc(Cl)cc1)Nc1ccc(F)c(Oc2ccc3ncc(N4CCOCC4)nc3c2)c1 [Compound C057, 1-(4-chlorophenyl)-3-(4-fluoro-3-((3-morpholinoquinoxalin-6-yl)oxy)phenyl)urea] |
|  | 70 to 89% | > 5 µM |  |  |  | O=C(Nc1ccc(F)c(Oc2ccc3nccnc3c2)c1)c1cccc(F)c1 [Compound C017, 3-fluoro-N-(4-fluoro-3-(quinoxalin-6-yloxy)phenyl)benzamide] |
|  | 70 to 89% | > 5 µM |  |  |  | O=C(Nc1ccc(Oc2ccc3nccnc3c2)cc1)c1cccc(C(F)(F)F)c1 [Compound C078, N-(4-(quinoxalin-6-yloxy)phenyl)-3-(trifluoromethyl)benzamide] |
| 70 to 89% | > 89% |  | > 5 µM |  |  | O=C(Nc1cccc(Cl)c1)Nc1ccc(F)c(Oc2ccc3ncc(N4CCOCC4)nc3c2)c1 [Compound C055, 1-(3-chlorophenyl)-3-(4-fluoro-3-((3-morpholinoquinoxalin-6-yl)oxy)phenyl)urea] |
